Where two headings read alike, the source gives them in different places. Where a SMILES comes first, the peptide text is derived from it.
Tests used:
SARS-CoV-2 M^Pro [1] = biological target: T1, SARS-CoV-2 M^Pro (Severe acute respiratory syndrome coronavirus 2, UniProt P0DTD1); assay: Determination of kinact/KI values for SARS-CoV-2 M^Pro (time- and concentration-dependent inactivation); assay type: biochemical
Protocol: where νo is the initial velocity of uninhibited reaction and νi is the initial velocity in the presence of inhibitor. All measurements were done in triplicate. Determination of kinact/KI values for SARS-CoV-2 M^Pro
Time- and concentration-dependent inactivation assays were done by following a similar protocol as described for Ki determination. M^Pro (12.5 nM final) was treated with the peptide-substrate (30 μM final) and test inhibitor (0-80 μM for D-FF(R/Cit)-(CMK/CMKyne); 0-1.25 mM for SM136-145) at time=0 to initiate inactivation process. The total volume of the assay mixture was 50 μL. Time-dependent increase in fluorescence was monitored at 485 nm with excitation at 340 nm for a period of 20-25 min. The observed rates (kobs) for the peptide cleavage in both the presence and absence of inhibitor were determined by fitting to a single-phase association equation. The resulting kobs values were plotted against the concentrations of inhibitor and linear fits were used to derive the slope that afforded the kinact/KI values. All measurements were done in triplicate.

SARS-CoV-2 M^Pro [2] = biological target: T1, SARS-CoV-2 M^Pro; assay: Determination of KI values for SARS-CoV-2 M^Pro (initial velocity, competitive inhibition); assay type: biochemical; conditions: competitive inhibition, initial velocity; read-out: M^Pro Ki
SARS-CoV-2 M^Pro [3] = biological target: T1, SARS-CoV-2 M^Pro; assay: Determination of IC50 values for SARS-CoV-2 M^Pro (fluorogenic peptide substrate, end-point); assay type: biochemical; conditions: 12.5 nM M^Pro, 20 min preincubation, 30 μM substrate; read-out: M^Pro IC50
CYP3A4/5 = conditions: data from medRxiv preprint; cited from earlier work
[4] = data from medRxiv preprint; cited from earlier work
A549-hACE2 cells = conditions: Table 2; data from medRxiv preprint; cited from earlier work
SARS-CoV-2 PL^Pro = SARS-CoV-2 PL^Pro (Severe acute respiratory syndrome coronavirus 2, UniProt P0DTD1); assay: Determination of IC50 values for SARS-CoV-2 PL^Pro (Z-RLRGG-AMC substrate); assay type: biochemical; conditions: 30 nM PL^Pro, 20 min preincubation; read-out: PL^Pro IC50
Cathepsin B = biological target: T2, Cathepsin B (Homo sapiens, UniProt P07858); assay: Cathepsin B inhibition assay kit (Abcam), IC50; assay type: biochemical; conditions: 20 min pretreatment
T2 construct: purchased Abcam ab185438
Protocol: (§1) Determination of IC50 and kinact/KI values for Cathepsins L and B
IC50 and kinact/KI values of the inhibitors were determined using commercially available inhibition assay kits (Abcam) by following the manufacturer's protocol. For IC50 values, enzymes were pretreated with test inhibitor (0-50 μM) for 20 min prior to adding the fluorogenic substrate, and end-point fluorescence was recorded after 30 min. For the kinact/KI values, enzymes were treated with inhibitor and substrate simultaneously and increase in fluorescence was monitored over 60 min. The observed rates (kobs) were determined by fitting to a single-phase association equation. The resulting kobs values were plotted against the concentrations of inhibitor and the data were fit to equation 2 to derive the kinact/KI values,
(§2) using GraphPad Prism, where kinact is the maximal rate of inactivation, KI is the concentration of inhibitor that affords half-maximal inactivation, and [I] is the concentration of inhibitor. When kobs with [I] varied linearly, kinact/KI was determined from the slope of the line. All the experiments were performed in triplicate. All fluorescence measurements were taken at absorption/emission wavelength of 400/505 nm using an EnVision 2105 plate reader. Crystallization of M^Pro in Complex with Inhibitors

SARS-CoV-2 = assay: microbe, parasite or virus in culture; assay type: cell-based; conditions: A549-hACE2 cells
Cathepsin L = biological target: T3, Cathepsin L (Homo sapiens, UniProt P07711); assay: Cathepsin L inhibition assay kit (Abcam), IC50 and kinact/KI; assay type: biochemical; conditions: for IC50: 20 min pretreatment; for kinact/KI: read-out: Cathepsin L kinact/KI
T3 construct: purchased Abcam ab197012
T3 sequence (P07711 114-333): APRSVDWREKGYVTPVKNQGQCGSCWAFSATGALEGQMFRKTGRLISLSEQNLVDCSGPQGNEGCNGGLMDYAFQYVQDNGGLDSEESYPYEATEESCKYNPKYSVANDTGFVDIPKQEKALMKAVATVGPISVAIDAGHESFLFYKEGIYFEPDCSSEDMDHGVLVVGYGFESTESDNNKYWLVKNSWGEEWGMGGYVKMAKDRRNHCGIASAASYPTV
Protocol: as §1
IC50 and kinact/KI values of the inhibitors were determined using commercially available inhibition assay kits (Abcam) by following the manufacturer's protocol. […] The observed rates (kobs) were determined by fitting to a single-phase association equation. The resulting kobs values were plotted against the concentrations of inhibitor and the data were fit to equation 2 to derive the kinact/KI values,
as §2, with “All fluorescence measurements were taken at absorption/emission wavelength of 400/505 nm using an EnVision 2105 plate reader.” left out

Q: For `CCOC(=O)C=CC(CC1CCNC1=O)NC(=O)C(Cc1ccc(F)cc1)NC(=O)C(Cc1ccc(F)cc1)NC(=O)OC(C)(C)C` (centres unmarked) [SM138], which kinact/KI (SARS-CoV-2 M^Pro [1]; read-out: M^Pro kinact/KI) is on record?
A: 10.8 M⁻¹ s⁻¹

Q: What does the source list for `CCOC(=O)C=CC(CC1CCNC1=O)NC(=O)C(Cc1ccc(F)cc1)NC(=O)C(N)Cc1ccc(F)cc1` (centres unmarked) [SM139]?
A: Ki (SARS-CoV-2 M^Pro [2]): 65 µM; IC50 (SARS-CoV-2 M^Pro [3]): 10 µM; kinact/KI (SARS-CoV-2 M^Pro [1]; read-out: M^Pro kinact/KI): 25 M⁻¹ s⁻¹

Q: With `CC(C)(C)[C@H](NC(=O)C(F)(F)F)C(=O)N1C[C@H]2[C@@H]([C@H]1C(=O)N[C@H](C#N)C[C@@H]1CCNC1=O)C2(C)C` [nirmatrelvir] as the compound, how does the CYP3A4/5 metabolism (CYP3A4/5) read?
A: HIGH

Q: What about the “Fa × Fg” value [4] of the same compound?
A: 95%

Q: And the cytoxcity (A549-hACE2 cells)?
A: >3 µM

Q: What does the source list for `CCOC(=O)C=CC(CC1CCNC1=O)NC(=O)C(Cc1ccc(F)cc1)NC(=O)C(Cc1ccccc1)NC(=O)OC(C)(C)C` (centres unmarked) [SM136]?
A: Ki (SARS-CoV-2 M^Pro [2]): 73 µM; IC50 (SARS-CoV-2 M^Pro [3]): 20 µM; kinact/KI (SARS-CoV-2 M^Pro [1]; read-out: M^Pro kinact/KI): 12.8 M⁻¹ s⁻¹

Q: For `CCOC(=O)C=CC(CC1CCNC1=O)NC(=O)C(Cc1ccc(F)cc1)NC(=O)C(N)Cc1ccccc1` (centres unmarked) [SM137], which Ki (SARS-CoV-2 M^Pro [2]) is on record?
A: 50 µM

Q: And the IC50 (SARS-CoV-2 M^Pro [3])?
A: 10 µM

Q: What about the kinact/KI (SARS-CoV-2 M^Pro [1]; read-out: M^Pro kinact/KI) of the same compound?
A: 30 M⁻¹ s⁻¹

Q: With `CCOC(=O)C=CC(CC1CCNC1=O)NC(=O)C(Cc1ccccc1)NC(=O)C(Cc1ccccc1)NC(=O)OC(C)(C)C` (centres unmarked) [SM140] as the compound, how does the IC50 (SARS-CoV-2 PL^Pro) read?
A: > 50 µM

Q: What about the IC50 (Cathepsin B) of the same compound?
A: > 50 µM

Q: What about the Ki (SARS-CoV-2 M^Pro [2]) of the same compound?
A: 16 µM

Q: What about the IC50 (SARS-CoV-2 M^Pro [3]) of the same compound?
A: 2.2 µM

Q: And the kinact/KI (SARS-CoV-2 M^Pro [1]; read-out: M^Pro kinact/KI)?
A: 150 M⁻¹ s⁻¹

Q: What does the source list for `NC(=O)NCCC[C@H](NC(=O)[C@H](Cc1ccccc1)NC(=O)[C@H](N)Cc1ccccc1)C(=O)CCl` [D-FFCit-CMK] (HELM PEPTIDE1{[dF].F.[Cit].[ClC[*:1]]}$$$$V2.0)?
A: IC50 (SARS-CoV-2 PL^Pro): > 50 µM; IC50 (SARS-CoV-2 M^Pro [3]): 0.13 µM

Q: Which “antiviral activity compared with SM141 and SM142” value (SARS-CoV-2) does the source give for `C#CCOCCC(=O)NC(Cc1ccccc1)C(=O)NC(Cc1ccccc1)C(=O)NC(C=CC(=O)OCC)CC1CCNC1=O` (centres unmarked) [SM145] here?
A: significantly lower antiviral activity than SM141 and SM142

Q: And the IC50 (SARS-CoV-2 PL^Pro)?
A: > 50 µM

Q: What about the IC50 (Cathepsin B) of the same compound?
A: > 50 µM

Q: And the Ki (SARS-CoV-2 M^Pro [2])?
A: 5.3 µM

Q: And the IC50 (Cathepsin L)?
A: 0.2 µM

Q: What about the kinact/KI (Cathepsin L) of the same compound?
A: 417 M⁻¹ s⁻¹

Q: What about the IC50 (SARS-CoV-2 M^Pro [3]) of the same compound?
A: 0.8 µM

Q: What about the kinact/KI (SARS-CoV-2 M^Pro [1]; read-out: M^Pro kinact/KI) of the same compound?
A: 400 M⁻¹ s⁻¹

Q: What about the kinact/KI (SARS-CoV-2 M^Pro [1]; read-out: second-order rate constant for enzyme inactivation (kinact/KI), M^Pro) of the same compound?
A: 400 M⁻¹ s⁻¹

Q: For `N=C(N)NCCC[C@H](NC(=O)[C@H](Cc1ccccc1)NC(=O)[C@H](N)Cc1ccccc1)C(=O)CCl` [D-FFR-CMK] (HELM PEPTIDE1{[dF].F.R.[ClC[*:1]]}$$$$V2.0), which IC50 (SARS-CoV-2 PL^Pro) is on record?
A: 5 µM

Q: What about the IC50 (SARS-CoV-2 M^Pro [3]) of the same compound?
A: 0.1 µM

Q: With `CCOC(=O)C=CC(CC1CCNC1=O)NC(=O)C(Cc1ccccc1)NC(=O)C(N)Cc1ccc(F)cc1` (centres unmarked) [SM143] as the compound, how does the IC50 (SARS-CoV-2 PL^Pro) read?
A: > 50 µM

Q: What about the IC50 (Cathepsin B) of the same compound?
A: > 50 µM

Q: And the Ki (SARS-CoV-2 M^Pro [2])?
A: 7 µM

Q: And the IC50 (Cathepsin L)?
A: 0.073 µM

Q: What about the kinact/KI (Cathepsin L) of the same compound?
A: 2330 M⁻¹ s⁻¹

Q: What about the IC50 (SARS-CoV-2 M^Pro [3]) of the same compound?
A: 0.9 µM

Q: And the kinact/KI (SARS-CoV-2 M^Pro [1]; read-out: M^Pro kinact/KI)?
A: 350 M⁻¹ s⁻¹

Reference: patent US20250326715A1, “NOVEL MAIN PROTEASE INHIBITORS, AND COMPOSITIONS AND METHODS THEREOF” (University of Massachusetts, priority 2023, published 2025)
